Data as given in patent US8318681B2, “Utilization of peptides as active ingredients for slimming” (ISP Investments Inc., priority 2006, dated 2012).
Ends that are not written are not given here.

System: pre-adipocyte cell line 3T3-L1
Experiment: Activity of the peptides on adipocytes: 3T3-L1 pre-adipocytes differentiated into mature adipocytes, Oil Red staining of lipid vacuoles, microscope observation
Format: cell-based
Details: mature adipocytes from 3T3-L1, treated with solution containing the peptide
Protocol: The number and the size of the lipid vacuoles present in the mature adipocytes are evaluated by microscope observation after specific staining with the “Oil Red” stain.
The pre-adipocyte cells 3T3-L1 are seeded in Labteks and maintained until 100% confluence in DMEM 10% SVF culture medium. The cells are treated with the peptide of sequence ID N° (5), representative of the family of peptides per the invention, placed in 1% solution à 1% starting with a solution of 50 ppm. Nontreated controls were prepared in parallel.
Once confluence is achieved, the cells are cultivated in the presence of differentiation inducers (IBMX, dexamethasone and insulin), so as to bring about the final differentiation into mature adipocytes. The differentiated adipocytes are further incubated for 3 hours with the peptide being tested in a concentration of 1%. Nontreated controls were prepared in parallel.
The adipocytes are then fixed for 10 minutes in a 4% formol and NaCl solution, after which the “Oil Red” stain solution (Sigma, O-0625) is applied for 15 minutes. The cells are then rinsed with warm water and mounted on slides, in hydrophilic medium (Aquatex). The observation is done under an optical microscope.

GLYDNLE [sequence ID N^o (5)]
morphology of mature adipocytes (versus nontreated controls (voluminous spherical shape)): less rounded
content of intra-adipocyte lipid vesicles (versus nontreated controls, Oil Red stain): clearly diminished
